One experiment has as its target T1, wildtype Kras / hSOS1 (Homo sapiens, UniProt P01116).
T1 construct: made in house; host or cells: E. coli BL21 (DE3)
As to the kind of experiment: HTRF assay, wildtype Kras / SOS1 interaction. Conditions: compound nos. 401-703; read-out: IC50 against wildtype Kras. Format: binding. In a few lines: (§1)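 GST-tagged K-Ras (mutant or wildtype) with anti-GST-Eu donor was mixed with His-hSOS1 and anti-6His-XL665 acceptor in HEPES pH 7.4 buffer with NaCl, DTT, BSA and Igepal. After ≥10 min, HTRF was read (ex 337 nm, em 620/665 nm); 665/620 ratios gave IC50 from duplicate dilution series.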

Experiment [1] deals with GST-tagged K-Ras mutant / His-tagged hSOS1 (Homo sapiens, UniProt P01116). Nature of the experiment: HTRF assay, K-Ras mutant / SOS1 interaction. The class given is binding. Conditions: compound nos. 401-703; read-out: IC50 against mutant Kras. The method, boiled down: as §1
Chain of GST-tagged K-Ras mutant / His-tagged hSOS1 (P01116 whole entry G12D, form open): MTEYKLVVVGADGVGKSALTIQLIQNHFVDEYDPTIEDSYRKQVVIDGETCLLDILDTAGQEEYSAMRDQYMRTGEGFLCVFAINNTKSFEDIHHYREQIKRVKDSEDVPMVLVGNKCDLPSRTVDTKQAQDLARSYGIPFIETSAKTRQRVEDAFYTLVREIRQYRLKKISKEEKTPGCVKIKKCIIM

Bounds are passed on as bounds.

T1 sequence (P01116 1-188 isoform P01116-2): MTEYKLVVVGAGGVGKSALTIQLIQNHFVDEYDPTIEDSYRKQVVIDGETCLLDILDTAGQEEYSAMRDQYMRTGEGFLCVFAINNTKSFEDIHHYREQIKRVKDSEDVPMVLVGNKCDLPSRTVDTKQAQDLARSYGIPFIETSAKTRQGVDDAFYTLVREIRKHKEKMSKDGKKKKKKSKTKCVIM

As to `Nc1nc2c(-c3c(Cl)cc4c(N5CCCOC(CO)C5)nc(OCC56CCCN5CCC6)nc4c3F)cccc2s1` (centres unmarked) [Compound 465, (4-(7-(2-aminobenzo[d]-thiazol-4-yl)-6-chloro-8-fluoro-2-((tetrahydro-1H-pyrrolizin-7a(5H)-yl)meth-oxy)quinazolin-4-yl)-1,4-oxazepan-2-yl)methanol], the half-maximal inhibitory concentration (IC50) (at wildtype Kras / hSOS1; in experiment [1]) was < 500 nM in each case.

In the case of `CN1CCC[C@H]1COc1nc(N2CCC(O)C(F)CC2)c2cc(Cl)c(-c3cccc4sc(N)nc34)c(F)c2n1` (stereo partly drawn) [Compound 466, 1-(7-(2-aminobenzo[d]-thiazol-4-yl)-6-chloro-8-fluoro-2-(((S)-1-methylpyr-rolidin-2-yl)methoxy)quin-azolin-4-yl)-5-fluoroazepan-4-ol], the IC50 (on wildtype Kras / hSOS1; in experiment [1]) was < 500 nM each time.

Regarding `Fc1c(N2CCCc3cccc(Cl)c32)cc(Cl)c2c(N3CCCCCC3)nc(OCC34CCCN3CCC4)nc12` [Compound 467, 4-(azepan-1-yl)-5-chloro-7-(8-chloro-3,4-dihydroquin-olin-1(2H)-yl)-8-fluoro-2-((tetrahydro-1H-pyrrolizin-7a(5H)-yl)methoxy)quin-azoline], the IC50 at wildtype Kras / hSOS1 is < 500 nM; in experiment [1], > 500 nM.

Regarding `Cc1ccc2sc(N)nc2c1-c1c(Cl)cc2c(N3CC4CCC(C3)N4)nc(OCC34CCCN3CCC4)nc2c1F` [Compound 468, 4-(4-(3,8-diazabicyclo-[3.2.1]octan-3-yl)-6-chloro-8-fluoro-2-((tetrahydro-1H-pyrrolizin-7a(5H)-yl)meth-oxy)quinazolin-7-yl)-5-methylbenzo[d]thiazol-2-amine], the half-inhibitory concentration (IC50) (at wildtype Kras / hSOS1; in experiment [1]) was < 500 nM each time.

Take `Cc1ccc(CN)cc1-c1c(Cl)cc2c(N3CC4CCC(C3)N4)nc(OCC34CCCN3CCC4)nc2c1F` [Compound 469, (3-(4-(3,8-diazabicyclo-[3.2.1]octan-3-yl)-6-chloro-8-fluoro-2-((tetrahydro-1H-pyrrolizin-7a(5H)-yl)meth-oxy)quinazolin-7-yl)-4-methylphenyl)methanamine]: the IC50 at wildtype Kras / hSOS1 is < 500 nM; in experiment [1], > 500 nM.

`CN1[C@@H]2CC[C@H]1CN(c1nc(OC[C@@]34CCCN3C[C@H](F)C4)nc3c(F)c(-c4ccc(F)c5sc(N)nc45)c(Cl)cc13)C2` [Compound 470, 4-(6-chloro-8-fluoro-2-(((2R,7aS)-2-fluorotetrahydro-1H-pyrrolizin-7a(5H)-yl)methoxy)-4-((1R,5S)-8-methyl-3,8-diazabicyclo[3.2.1]octan-3-yl)quinazolin-7-yl)-7-fluorobenzo[d]thiazol-2-amine]: the IC50 (at wildtype Kras / hSOS1; in experiment [1]) was < 500 nM each time.

As to `CN1CCC[C@H]1COc1nc(N2CCCC(NS(=O)(=O)C3CC3)CC2)c2cc(Cl)c(-c3cccc4sc(N)nc34)c(F)c2n1` (stereo partly drawn) [Compound 472, N-(1-(7-(2-aminobenzo[d]-thiazol-4-yl)-6-chloro-8-fluoro-2-(((S)-1-methylpyr-rolidin-2-yl)methoxy)quin-azolin-4-yl)azepan-4-yl)-cyclopropanesulfonamide], the IC50 (at wildtype Kras / hSOS1; in experiment [1]) was < 500 nM throughout.

Turning to `N#Cc1c(N)sc2c(F)ccc(-c3c(Cl)cc4c(N5CC6CCC(C5)O6)nc(OC[C@@]56CCCN5C[C@H](F)C6)nc4c3F)c12` [Compound 473, 4-(4-(8-oxa-3-azabicyclo-[3.2.1]octan-3-yl)-6-chloro-8-fluoro-2-(((2R,7aS)-2-fluorotetrahydro-1H-pyrrol-izin-7a(5H)-yl)methoxy)-quinazolin-7-yl)-2-amino-7-fluorobenzo[b]thiophene-3-carbonitrile], the IC50 (on wildtype Kras / hSOS1; in experiment [1]) was < 500 nM each time.

Take `COC1CCCCN(c2nc(OC[C@@H]3CCCN3C)nc3c(F)c(-c4cccc5sc(N)nc45)c(Cl)cc23)C1` (stereo partly drawn) [Compound 474, 4-(6-chloro-8-fluoro-4-(3-methoxyazepan-1-yl)-2-(((S)-1-methylpyrrolidin-2-yl)methoxy)quinazolin-7-yl)benzo[d]thiazol-2-amine]: the IC50 (on wildtype Kras / hSOS1; in experiment [1]) was < 500 nM throughout.

Consider `CN1CCC[C@H]1COc1nc(N2CCCS(=O)(=O)CC2)c2cc(Cl)c(-c3cccc4sc(N)nc34)c(F)c2n1` [Compound 475, 4-(7-(2-aminobenzo[d]-thiazol-4-yl)-6-chloro-8-fluoro-2-(((S)-1-methyl-pyrrolidin-2-yl)methoxy)-quinazolin-4-yl)-1,4-thiazepane 1,1-dioxide], for which the IC50 (on wildtype Kras / hSOS1; in experiment [1]) was < 500 nM each time.

Turning to `N#Cc1c(N)sc2cc(F)cc(-c3c(Cl)cc4c(N5CC6CCC(C5)N6)nc(OC[C@@]56CCCN5C[C@H](F)C6)nc4c3F)c12` [Compound 476, 4-(4-(3,8-diazabicyclo-[3.2.1]octan-3-yl)-6-chloro-8-fluoro-2-(((2R,7aS)-2-fluorotetrahydro-1H-pyrrolizin-7a(5H)-yl)meth-oxy)quinazolin-7-yl)-2-amino-6-fluorobenzo[b]-thiophene-3-carbonitrile], the 50% inhibitory concentration (IC50) (on wildtype Kras / hSOS1; in experiment [1]) was < 500 nM each time.

As to `Nc1nc2c(-c3c(Cl)cc4c(N5CCCS(=O)(=O)CC5)nc(OC[C@@]56CCCN5C[C@H](F)C6)nc4c3F)ccc(F)c2s1` [Compound 477, 4-(7-(2-amino-7-fluoroben-zo-[d]thiazol-4-yl)-6-chloro-8-fluoro-2-(((2R,7aS)-2-fluorotetrahydro-1H-pyrrolizin-7a(5H)-yl)meth-oxy)quinazolin-4-yl)-1,4-thiazepane 1,1-dioxide], the IC50 (at wildtype Kras / hSOS1; in experiment [1]) was < 500 nM throughout.

`Cc1ccc2cnn(C)c2c1-c1ccc2c(N3CC4CCC(C3)N4)nc(OC[C@@]34CCCN3C[C@H](F)C4)nc2c1F` [Compound 478, 4-(3,8-diazabicyclo-[3.2.1]octan-3-yl)-7-(1,6-dimethyl-1H-indazol-7-yl)-8-fluoro-2-(((2R,7aS)-2-fluorotetrahydro-1H-pyrrolizin-7a(5H)-yl)meth-oxy)quinazoline]: the IC50 is < 500 nM at wildtype Kras / hSOS1 and > 500 nM in experiment [1].

Consider `Fc1c(Br)c(Cl)cc2c(N3CC4CCC(C3)N4)nc(OC[C@@]34CCCN3C[C@H](F)C4)nc12` [Compound 479, 4-(3,8-diazabicyclo[3.2.1]-octan-3-yl)-7-bromo-6-chloro-8-fluoro-2-(((2R,7aS)-2-fluorotetra-hydro-1H-pyrrolizin-7a(5H)-yl)methoxy)quin-azoline], for which the IC50 at wildtype Kras / hSOS1 was < 500 nM; in experiment [1], > 500 nM.

Consider `Nc1nc2c(-c3c(Cl)cc4c(N5CCC[C@@H](O)CC5)nc(OC[C@@]56CCCN5C[C@H](F)C6)nc4c3F)ccc(F)c2s1` [Compound 480, (4R)-1-(7-(2-amino-7-fluorobenzo[d]thiazol-4-yl)-6-chloro-8-fluoro-2-(((2R,7aS)-2-fluorotetra-hydro-1H-pyrrolizin-7a(5H)-yl)methoxy)quinazolin-4-yl)azepan-4-ol], for which the IC50 (at wildtype Kras / hSOS1; in experiment [1]) was < 500 nM each time.

With `CNCC1CN(c2nc(OCC34CCCN3CCC4)nc3c(F)c(-c4ccc(F)c5sc(N)nc45)c(Cl)cc23)CCCO1` (centres unmarked) [Compound 481, 4-(6-chloro-8-fluoro-4-(2-((methylamino)methyl)-1,4-oxazepan-4-yl)-2-((tetra-hydro-1H-pyrrolizin-7a(5H)-yl)methoxy)quinazolin-7-yl)-7-fluorobenzo[d]thiazol-2-amine], the IC50 (at wildtype Kras / hSOS1; in experiment [1]) was < 500 nM in each case.

Take `Fc1c(-c2cccc(-c3ccccc3)c2)c(Cl)cc2c(N3CCCCCC3)nc(OCC34CCCN3CCC4)nc12` [Compound 482, 7-([1,1′-biphenyl]-3-yl)-4-(azepan-1-yl)-6-chloro-8-fluoro-2-((tetrahydro-1H-pyrrolizin-7a(5H)-yl)meth-oxy)quinazoline]: the IC50 was < 500 nM on wildtype Kras / hSOS1 and > 500 nM in experiment [1].

In the case of `Nc1nc2c(-c3cc4c(=O)n(CCN5CCCC5)nc(N5CCCOCC5)c4cc3Cl)ccc(F)c2s1` [Compound 484, 7-(2-amino-7-fluorobenzo-[d]thiazol-4-yl)-6-chloro-4-(1,4-oxazepan-4-yl)-2-(2-(pyrrolidin-1-yl)ethyl)phthal-azin-1(2H)-one], the results for the half-inhibitory concentration (IC50) (at wildtype Kras / hSOS1; in experiment [1]) were < 500 nM and > 500 nM, respectively.

Turning to `Nc1nc2c(-c3c(Cl)cc4c(N5CCCC(CO)CC5)nc(OC[C@@]56CCCN5C[C@H](F)C6)nc4c3F)ccc(F)c2s1` (stereo partly drawn) [Compound 485, (1-(7-(2-amino-7-fluoro-benzo[d]thiazol-4-yl)-6-chloro-8-fluoro-2-(((2R,7aS)-2-fluorotetra-hydro-1H-pyrrolizin-7a(5H)-yl)methoxy)quinazolin-4-yl)azepan-4-yl)methanol], the 50% inhibitory concentration (IC50) (at wildtype Kras / hSOS1; in experiment [1]) was < 500 nM each time.

`Fc1c(N2CCc3ccccc32)ccc2c(N3CCCCCC3)nc(OCC34CCCN3CCC4)nc12` [Compound 487, 4-(azepan-1-yl)-8-fluoro-7-(indolin-1-yl)-2-((tetra-hydro-1H-pyrrolizin-7a(5H)-yl)methoxy)quin-azoline]: the IC50 at wildtype Kras / hSOS1 is < 500 nM; in experiment [1], > 500 nM.

For `CN(C)CC1(COc2nc(N3CCNCC(F)(F)C3)c3cc(Cl)c(-c4ccc(F)c5sc(N)nc45)c(F)c3n2)CC1` [Compound 489, 4-(6-chloro-4-(6,6-difluoro-1,4-diazepan-1-yl)-2-((1-((dimethylamino)methyl)-cyclopropyl)methoxy)-8-fluoroquinazolin-7-yl)-7-fluorobenzo[d]thiazol-2-amine], the IC50 (on wildtype Kras / hSOS1; in experiment [1]) was < 500 nM each time.

`CN1CCC[C@H]1COc1nc(N2CCCC(n3ccnc3)CC2)c2cc(Cl)c(-c3cccc4sc(N)nc34)c(F)c2n1` (stereo partly drawn) [Compound 490, 4-(4-(4-(1H-imidazol-1-yl)-azepan-1-yl)-6-chloro-8-fluoro-2-(((S)-1-methylpyr-rolidin-2-yl)methoxy)quin-azolin-7-yl)benzo[d]thiazol-2-amine]: the IC50 was < 500 nM at wildtype Kras / hSOS1 and > 500 nM in experiment [1].

Source of the values: patent US20240254129A1, “HETEROCYCLIC COMPOUNDS AND USES THEREOF” (Kumquat Biosciences Inc., priority 2021, published 2024).
